Tested on: penile intracavernosal pressure
Experiment: Pelvic nerve-stimulated penile intracavernosal pressure in the anaesthetised rabbit model of erection
Type: in vivo
Details: Compound 3 (10 mg/kg sc) concomitant with a selective PDE5 inhibitor (1 mg/kg iv), vs Compound 3 alone, anaesthetised rabbit (FIG. 26)
Protocol: Male New Zealand rabbits (˜2.5kg) were pre-medicated with a combination of Medetomidine (Domitor®) 0.5 ml/kg i.m., and Ketamine (Vetalar®)) 0.25 ml/kg i.m. whilst maintaining oxygen intake via a face mask. The rabbits were tracheotomised using a PorteXTM uncuffed endotracheal tube 3 ID., connected to ventilator and maintained at a ventilation rate of 30-40 breaths per minute, with an approximate tidal volume of 18-20 ml, and a maximum airway pressure of 10 cm H2O. Anaesthesia was then switched to Isoflurane and ventilation continued with O2 at 21/min. The right marginal ear vein was cannulated using a 23G or 24G catheter, and Lactated Ringer solution perfused at 0.5 ml/min. The rabbit was maintained at 3% Isoflurane during invasive surgery, dropping to 2% for maintenance anaesthesia. The left jugular vein was exposed, isolated and then cannulated with a PVC catheter (17G) for the infusion of drugs and compounds.
The left groin area of the rabbit was shaved and a vertical incision was made approximately 5 cm in length along the thigh. […] Systolic and diastolic pressures were measured, and the mean arterial pressure calculated using the formula (diastolic x2+systolic)÷3. Heart rate was measured via the pulse oxymeter and Po-ne-mah data acquisition software system (Ponemah Physiology Platform, Gould Instrument Systems Inc). […]

Q: For `C[C@@](Cc1c[nH]c2ccccc12)(NC(=O)Nc1ccc([N+](=O)[O-])cc1)C(=O)NCC1(c2ccc(N)cc2)CCCCC1` [Compound 3, (2S)-N-{[1-(4-aminophenyl)cyclohexyl]methyl}-3-(1H-indol-3-yl)-2-methyl-2-{[(4-nitroanilino)-carbonyl]amino}propanamide], which “pelvic nerve-stimulated intracavernosal pressure (ICP)” value is on record?
A: marked enhancement of the ICP

Q: And the “pelvic nerve-stimulated intracavernosal pressure (ICP)” value (listed as compound 3)?
A: marked enhancement of intracavernosal pressure

From patent US20020169101A1, “Treatment of sexual dysfunction” (priority 1999, published 2002)
